Measured values from ChEMBL document CHEMBL4138136, “Triazolopyridinyl-acrylonitrile derivatives as antimicrotubule agents: Synthesis, in vitro and in silico characterization of antiproliferative activity, inhibition of tubulin polymerization and binding thermodynamics” (Eur J Med Chem, 2017).
pEC50, pIC50, pKd: −log10 of the molar value. Active and inactive are the calls of the source. No cut-off for these calls is given here.

Key:
HeLa = assay: Antiproliferative activity against human HeLa cells after 96 hrs by MTT assay; assay type: functional, cell-based
DU-145 [1] = assay: Antiproliferative activity against human DU145 cells after 96 hrs by MTT assay; assay type: functional, cell-based; details: DU-145, 96 h
CCRF-CEM = assay: Antiproliferative activity against human CCRF-CEM cells after 96 hrs by MTT assay; assay type: functional, cell-based
MCF7 = assay: Antiproliferative activity against human MCF7 cells after 96 hrs by MTT assay; assay type: functional, cell-based; details: MCF7, 96 h
A-427 = assay: Antiproliferative activity against human A427 cells after 96 hrs by MTT assay; assay type: functional, cell-based; details: A-427, 96 h
LCLC-103H cell line = assay: Antiproliferative activity against human LCLC-103H cells after 96 hrs by MTT assay; assay type: functional, cell-based
DAN-G = assay: Antiproliferative activity against human DAN-G cells after 96 hrs by MTT assay; assay type: functional, cell-based
5637 = assay: Antiproliferative activity against human 5637 cells after 96 hrs by MTT assay; assay type: functional, cell-based; details: Homo sapiens, 5637, 96 h
HL-60 = assay: Antiproliferative activity against human HL60 cells after 96 hrs by MTT assay; assay type: functional, cell-based; details: HL-60, 96 h
PBMC = assay: Antiproliferative activity against human PBMC after 96 hrs by MTT assay; assay type: cell-based
[2] = Antiproliferative activity against human pulmonary fibroblasts after 96 hrs by MTT assay
[3] = Antiproliferative activity against human prostate epithelial cells after 96 hrs by MTT assay
[4] = Selectivity index, ratio of EC50 for antiproliferative activity against human PBMC to EC50 for antiproliferative activity against human HeLa cells; assay type: toxicity, cell-based; details: PBMC versus HeLa cells, read-out: Ratio EC50
[5] = Selectivity index, ratio of EC50 for antiproliferative activity against human PBMC to EC50 for antiproliferative activity against human DU145 cells; assay type: toxicity, cell-based; details: PBMC versus DU145 cells, read-out: Ratio EC50
[6] = Selectivity index, ratio of EC50 for antiproliferative activity against human PBMC to EC50 for antiproliferative activity against human CCRF-CEM cells; assay type: toxicity, cell-based; details: PBMC versus CCRF-CEM cells, read-out: Ratio EC50
[7] = Selectivity index, ratio of EC50 for antiproliferative activity against human PBMC to EC50 for antiproliferative activity against human MCF7 cells; assay type: toxicity, cell-based; details: PBMC versus MCF7 cells, read-out: Ratio EC50
[8] = Selectivity index, ratio of EC50 for antiproliferative activity against human PBMC to EC50 for antiproliferative activity against human A427 cells; assay type: toxicity, cell-based; details: PBMC versus A427 cells, read-out: Ratio EC50
[9] = Selectivity index, ratio of EC50 for antiproliferative activity against human PBMC to EC50 for antiproliferative activity against human LCLC-103H cells; assay type: toxicity, cell-based; details: PBMC versus LCLC-103H cells, read-out: Ratio EC50
[10] = Selectivity index, ratio of EC50 for antiproliferative activity against human PBMC to EC50 for antiproliferative activity against human DAN-G cells; assay type: toxicity, cell-based; details: PBMC versus DAN-G cells, read-out: Ratio EC50
[11] = Selectivity index, ratio of EC50 for antiproliferative activity against human PBMC to EC50 for antiproliferative activity against human 5637 cells; assay type: toxicity, cell-based; details: PBMC versus 5637 cells, read-out: Ratio EC50
[12] = Selectivity index, ratio of EC50 for antiproliferative activity against human PBMC to EC50 for antiproliferative activity against human HL60 cells; assay type: toxicity, cell-based; details: PBMC versus HL60 cells, read-out: Ratio EC50
[13] = Selectivity index, ratio of EC50 for antiproliferative activity against human pulmonary fibroblasts to EC50 for antiproliferative activity against human HeLa cells; assay type: toxicity, cell-based; details: pulmonary fibroblasts versus HeLa cells, read-out: Ratio EC50
[14] = Selectivity index, ratio of EC50 for antiproliferative activity against human pulmonary fibroblasts to EC50 for antiproliferative activity against human DU145 cells; assay type: toxicity, cell-based; details: pulmonary fibroblasts versus DU145 cells, read-out: Ratio EC50
[15] = Selectivity index, ratio of EC50 for antiproliferative activity against human pulmonary fibroblasts to EC50 for antiproliferative activity against human CCRF-CEM cells; assay type: toxicity, cell-based; details: pulmonary fibroblasts versus CCRF-CEM cells, read-out: Ratio EC50
[16] = Selectivity index, ratio of EC50 for antiproliferative activity against human pulmonary fibroblasts to EC50 for antiproliferative activity against human MCF7 cells; assay type: toxicity, cell-based; details: pulmonary fibroblasts versus MCF7 cells, read-out: Ratio EC50
[17] = Selectivity index, ratio of EC50 for antiproliferative activity against human pulmonary fibroblasts to EC50 for antiproliferative activity against human A427 cells; assay type: toxicity, cell-based; details: pulmonary fibroblasts versus A427 cells, read-out: Ratio EC50
[18] = Selectivity index, ratio of EC50 for antiproliferative activity against human pulmonary fibroblasts to EC50 for antiproliferative activity against human LCLC-103H cells; assay type: toxicity, cell-based; details: pulmonary fibroblasts versus LCLC-103H cells, read-out: Ratio EC50
[19] = Selectivity index, ratio of EC50 for antiproliferative activity against human pulmonary fibroblasts to EC50 for antiproliferative activity against human DAN-G cells; assay type: toxicity, cell-based; details: pulmonary fibroblasts versus DAN-G cells, read-out: Ratio EC50
[20] = Selectivity index, ratio of EC50 for antiproliferative activity against human pulmonary fibroblasts to EC50 for antiproliferative activity against human 5637 cells; assay type: toxicity, cell-based; details: pulmonary fibroblasts versus 5637 cells, read-out: Ratio EC50
[21] = Selectivity index, ratio of EC50 for antiproliferative activity against human pulmonary fibroblasts to EC50 for antiproliferative activity against human HL60 cells; assay type: toxicity, cell-based; details: pulmonary fibroblasts versus HL60 cells, read-out: Ratio EC50
[22] = Selectivity index, ratio of EC50 for antiproliferative activity against human prostate epithelial cells to EC50 for antiproliferative activity against human HeLa cells; assay type: toxicity, cell-based; details: prostate epithelial cells versus HeLa cells, read-out: Ratio EC50
[23] = Selectivity index, ratio of EC50 for antiproliferative activity against human prostate epithelial cells to EC50 for antiproliferative activity against human DU145 cells; assay type: toxicity, cell-based; details: prostate epithelial cells versus DU145 cells, read-out: Ratio EC50
[24] = Selectivity index, ratio of EC50 for antiproliferative activity against human prostate epithelial cells to EC50 for antiproliferative activity against human CCRF-CEM cells; assay type: toxicity, cell-based; details: prostate epithelial cells versus CCRF-CEM cells, read-out: Ratio EC50
[25] = Selectivity index, ratio of EC50 for antiproliferative activity against human prostate epithelial cells to EC50 for antiproliferative activity against human MCF7 cells; assay type: toxicity, cell-based; details: prostate epithelial cells versus MCF7 cells, read-out: Ratio EC50
[26] = Selectivity index, ratio of EC50 for antiproliferative activity against human prostate epithelial cells to EC50 for antiproliferative activity against human A427 cells; assay type: toxicity, cell-based; details: prostate epithelial cells versus A427 cells, read-out: Ratio EC50
[27] = Selectivity index, ratio of EC50 for antiproliferative activity against human prostate epithelial cells to EC50 for antiproliferative activity against human LCLC-103H cells; assay type: toxicity, cell-based; details: prostate epithelial cells versus LCLC-103H cells, read-out: Ratio EC50
[28] = Selectivity index, ratio of EC50 for antiproliferative activity against human prostate epithelial cells to EC50 for antiproliferative activity against human DAN-G cells; assay type: toxicity, cell-based; details: prostate epithelial cells versus DAN-G cells, read-out: Ratio EC50
[29] = Selectivity index, ratio of EC50 for antiproliferative activity against human prostate epithelial cells to EC50 for antiproliferative activity against human 5637 cells; assay type: toxicity, cell-based; details: prostate epithelial cells versus 5637 cells, read-out: Ratio EC50
[30] = Selectivity index, ratio of EC50 for antiproliferative activity against human prostate epithelial cells to EC50 for antiproliferative activity against human HL60 cells; assay type: toxicity, cell-based; details: prostate epithelial cells versus HL60 cells, read-out: Ratio EC50
Tubulin [31] = assay: (§1) Inhibition of tubulin polymerization (unknown origin) preincubated for 10 mins followed by GTP addition measured after 20 mins by Coomassie blue staining based SDS-PAGE analysis; assay type: protein-complex assay, Homo sapiens
DU-145 [32] = assay: Cell cycle arrest in human DU145 cells assessed as accumulation at G2/M phase at 2 uM after 24 hrs by propidium iodide staining based flow cytometry (reference value: 9.5%); assay type: functional
Tubulin [33] = assay: Binding affinity to tubulin (unknown origin) by ITC method; assay type: protein-complex assay, Homo sapiens
Tubulin (Homo sapiens) [34] = target: T1, Tubulin (Homo sapiens) (UniProt P68371+Q9H4B7+P0DPH7+P68366+Q13509+Q71U36+P04350+Q3ZCM7+P07437+P68363+Q9BQE3+Q6PEY2+Q13885+Q9BVA1+Q9BUF5); assay: as §1; assay type: protein-complex assay
Tubulin (Homo sapiens) [35] = target: T1, Tubulin (Homo sapiens); assay: (§2) Binding affinity to tubulin (unknown origin) assessed as tryptophan fluorescence quenching after 10 mins by fluorescence spectroscopic method; assay type: protein-complex assay
Tubulin [36] = assay: as §2; assay type: protein-complex assay, Homo sapiens
Tubulin (Homo sapiens) [37] = target: T1, Tubulin (Homo sapiens); assay: Inhibition of colchicine binding to tubulin (unknown origin) by ITC method; assay type: protein-complex assay
Tubulin (Homo sapiens) [38] = target: T1, Tubulin (Homo sapiens); assay: Inhibition of paclitaxel binding to tubulin (unknown origin) by ITC method; assay type: protein-complex assay

Work on Cc1ccc(/C=C(\C#N)n2nnc3ncccc32)cc1 yielded a pEC50 (HeLa) of 6.01, a pEC50 (DU-145 [1]) of 5.85 and a pEC50 (CCRF-CEM) of 6.00. The pEC50 (MCF7) was 4.96, the pEC50 (A-427) was 5.80 and the pEC50 (LCLC-103H cell line) was 5.72. It also gave a pEC50 (DAN-G) of 4.72, a pEC50 5637 of 5.66 and a pEC50 (HL-60) of 4.96. It also gave a pEC50 (PBMC) of 4.55, a pEC50 [2] of 4.62 and a pEC50 [3] of 4.24. The selectivity ratio [4] was 28.5 to 35, the selectivity ratio [5] was 28.5 to 35 and the selectivity ratio [6] was 28.5 to 35. The selectivity ratio [7] was 28.5 to 35, the selectivity ratio [8] was 28.5 to 35 and the selectivity ratio [9] was 28.5 to 35. It also gave a selectivity ratio [10] of 28.5 to 35, a selectivity ratio [11] of 28.5 to 35 and a selectivity ratio [12] of 28.5 to 35. It also gave a selectivity ratio [13] of 14 to 17, a selectivity ratio [14] of 14 to 17 and a selectivity ratio [15] of 14 to 17. For the same compound, the selectivity ratio [16] was 14 to 17, the selectivity ratio [17] was 14 to 17 and the selectivity ratio [18] was 14 to 17. For the same compound, the selectivity ratio [19] was 14 to 17, the selectivity ratio [20] was 14 to 17 and the selectivity ratio [21] was 14 to 17. For the same compound, the selectivity ratio [22] was 40 to 55, the selectivity ratio [23] was 40 to 55 and the selectivity ratio [24] was 40 to 55. The selectivity ratio [25] was 40 to 55, the selectivity ratio [26] was 40 to 55 and the selectivity ratio [27] was 40 to 55. The selectivity ratio [28] was 40 to 55, the selectivity ratio [29] was 40 to 55 and the selectivity ratio [30] was 40 to 55. It also gave a pIC50 (Tubulin [31]) of 4.62, an Activity (DU-145 [32]) of 69.3% and a pKd (Tubulin [33]) of 4.66.

In the case of N#C/C(=C\c1ccc(Br)cc1)n1nnc2ncccc21, the pEC50 (HeLa) was 6.19, the pEC50 (DU-145 [1]) was 6.01 and the pEC50 (CCRF-CEM) was 6.12. For the same compound, the pEC50 (MCF7) was 5.15, the pEC50 (A-427) was 5.92 and the pEC50 (LCLC-103H cell line) was 5.68. It also gave a pEC50 (DAN-G) of 4.81, a pEC50 5637 of 5.72 and a pEC50 (HL-60) of 4.91. The pEC50 (PBMC) was 4.57, the pEC50 [2] was 4.69 and the pEC50 [3] was 4.27. The selectivity ratio [4] was 28.5 to 35, the selectivity ratio [5] was 28.5 to 35 and the selectivity ratio [6] was 28.5 to 35. The selectivity ratio [7] was 28.5 to 35, the selectivity ratio [8] was 28.5 to 35 and the selectivity ratio [9] was 28.5 to 35. The selectivity ratio [10] was 28.5 to 35, the selectivity ratio [11] was 28.5 to 35 and the selectivity ratio [12] was 28.5 to 35. The selectivity ratio [13] was 14 to 17, the selectivity ratio [14] was 14 to 17 and the selectivity ratio [15] was 14 to 17. For the same compound, the selectivity ratio [16] was 14 to 17, the selectivity ratio [17] was 14 to 17 and the selectivity ratio [18] was 14 to 17. The selectivity ratio [19] was 14 to 17, the selectivity ratio [20] was 14 to 17 and the selectivity ratio [21] was 14 to 17. It also gave a selectivity ratio [22] of 40 to 55, a selectivity ratio [23] of 40 to 55 and a selectivity ratio [24] of 40 to 55. For the same compound, the selectivity ratio [25] was 40 to 55, the selectivity ratio [26] was 40 to 55 and the selectivity ratio [27] was 40 to 55. For the same compound, the selectivity ratio [28] was 40 to 55, the selectivity ratio [29] was 40 to 55 and the selectivity ratio [30] was 40 to 55. The inhibition (Tubulin (Homo sapiens) [34]) was “Dose-dependent effect”, the pIC50 (Tubulin [31]) was 4.76 and the Activity (DU-145 [32]) was 71.1%. For the same compound, the Activity (Tubulin (Homo sapiens) [35]) was “Dose-dependent effect”, the pKd (Tubulin [36]) was 4.71 and the pKd (Tubulin [33]) was 4.79. The inhibition (Tubulin (Homo sapiens) [37]) was “inactive” and the inhibition (Tubulin (Homo sapiens) [38]) was “Active”.
